Reference: US6465631B1, “Lipid a 4′ kinase” (Duke University, priority 1997, dated 2002)

Molecular target: T1, lipid A 4′ kinase (Escherichia coli, UniProt P27300)
T1 construct: The first primer introduces a Nde I site at the start codon of orfE, and the second primer introduces a BamHl site downstream of the stop codon; made in house; host or cells: E. coli BLR(DE3)pLysS/pJK2 (pET3a, T7 promoter); Controls with chromosomal kinase only: BR7 membranes and BLR(DE3)pLysS/pET3a fractions
Assay: 4′ kinase assay method II ([γ-32P]ATP donor, lipid acceptor, TLC)
Assay type: biochemical, E. coli
Settings: for utilisation as substrate of the 4′ kinase (in words): recombinant, overexpressed 4′ kinase (BLR(DE3)pLysS/pJK2 membranes); for 32P from input [γ-32P]-ATP incorporated into 4′-phosphorylated product (yield): 0.6 μM [γ-32P]ATP, 100 μM lipid acceptor, 10 min, 30° C.
Description: FIG. 12: Effective phosphorylation of DS-1-P and DS-1-P analogs with recombinant, overproduced 4′ kinase. Washed membranes from strain BR7 and BLR(DE3)pLysS/pJK2 were used, as indicated, in 4′ kinase assays containing 100 μM of the indicated DS-1-P analog, 0.6 μM [γ-^32P] ATP, 50 mM Tris, pH 8.5, 5 mM MgCl2, 1% NP-40, 1 mg/ml cardiolipin and 0.5 mg/ml washed membranes. After a 10 minute incubation at 30° C., 5 μl of the reaction was spotted onto a Silica Gel 60 TLC plate and developed in chloroform:pyridine:formic acid:water (30:70:16:10 v/v). The plate was dried, exposed to a PhosphorImager screen and visualized using ImageQuant software. Arrows indicate the products of the reactions. If the native substrate DS-1-P is present in the reaction, [4′-^32P]-lipid IVA is formed. When 3-aza-DS-1-P, base-treated DS-1-P, or base-treated 3-aza-DS-1-P are present, 4′ phosphorylated products a, b and c are formed, respectively. The migration of each of these products is slower than the non-phosphorylated substrate analog, consistent with the phosphate incorporation. As in FIG. 9, BLR/pJK2 is an abbreviation for BLR(DE3)pLysS/pJK2, and NE indicates the no enzyme control. […] Minor ^32P containing lipids generated by membranes of BLR(DE3)pLysS/pJK2 in the absence of any acceptor substrate arise by the action of diglyceride kinase on endogenous glycerophospholipids (see especially Lane 6). The diglyceride kinase is inactivated by mutation in strain BR7 (Hampton et al, Methods in Enzymology 209:466 (1992)).
Assays for 4′ kinase activity. Two methods for analyzing 4′ kinase activity of various protein fractions were employed. The first (method I) utilizes DS-1-^32P as the labeled substrate. Typically, 100 μM DS-1-^32P (1000 cpm/nmol), 1 mg/ml cardiolipin, 50 mM Tris, pH 8.5, 5 mM ATP, 1% NP-40, and 5 mM MgCl2 are mixed with 0.5-500 μg/ml protein fraction and incubated at 30° C. for various times. Reactions were stopped by spotting a portion of the reaction onto a Silica Gel 60 thin layer chromatography plate. Plates were developed in chloroform:methanol:water:acetic acid (25:15:4:2, v/v) and analyzed as described above. Method II (which is not intended for the quantitative determination of specific activities) utilizes [γ-^32P] ATP (˜8×10^6 cpm/nmol) as the labeled substrate. The reaction conditions are exactly the same as for method I except that the ATP concentration is lowered to 0.6 μM and only non-radioactive DS-1-P (final concentration of 100 μM) is added. The reactions were stopped as described above, and plates were developed in chloroform:pyridine:formic acid:water (30:70:16:10, v/v).
Each lipid analog was tested as a 4′ kinase substrate using recombinant, overexpressed 4′ kinase in conjunction with the method II assay conditions (0.6 μM [γ-^32P]-ATP as the phosphate donor and 100 μM lipid acceptor). DS-1-P becomes phosphorylated to form [4′-^32P]-lipid IVA by BR7 membranes (containing wild-type kinase levels), but only with a yield of ˜0.5% (FIG. 11, lane 2). When BLR(DE3)pLysS/pJK2 membranes are used (FIG. 12, lane 7) more than 50% of the ^32P is incorporated into [4′-^32P]-lipid IVA. […] Products (b) and (c) are formed from base-treated DS-1-P and base treated 3-aza-DS-1-P, respectively.

T1 sequence (P27300 whole entry): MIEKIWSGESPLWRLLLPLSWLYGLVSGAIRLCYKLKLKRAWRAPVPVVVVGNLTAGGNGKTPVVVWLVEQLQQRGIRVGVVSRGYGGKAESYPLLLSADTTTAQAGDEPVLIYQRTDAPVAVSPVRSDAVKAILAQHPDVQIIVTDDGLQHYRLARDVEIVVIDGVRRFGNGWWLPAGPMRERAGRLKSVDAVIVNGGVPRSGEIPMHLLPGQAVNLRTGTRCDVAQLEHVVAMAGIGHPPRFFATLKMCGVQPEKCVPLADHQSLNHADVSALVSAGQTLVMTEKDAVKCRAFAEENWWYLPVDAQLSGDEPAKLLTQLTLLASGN

| Compound | utilisation as substrate of the 4′ kinase (in words) | 32P from input [γ-32P]-ATP incorporated into 4′-phosphorylated product (yield) (BLR(DE3)pLysS/pJK2 membranes (recombinant, overexpressed 4′ kinase)) | 32P from input [γ-32P]-ATP incorporated into 4′-phosphorylated product (yield) (BR7 membranes (wild-type kinase levels)) |
| --- | --- | --- | --- |
| 2,3-diacyl-glucosamine-1-phosphate [Lipid X] | not substrates | – | – |
| CCCCCCCCCCC[C@@H](O)CC(=O)N[C@H]1[C@H](OC[C@H]2O[C@H](OP(=O)(O)O)[C@H](NC(=O)C[C@H](O)CCCCCCCCCCC)[C@@H](OC(=O)C[C@H](O)CCCCCCCCCCC)[C@@H]2O)O[C@H](CO)[C@@H](O)[C@@H]1OC(=O)C[C@H](O)CCCCCCCCCCC [DS-1-P, tetraacyldisaccharide-1-phosphate] | large amount | more than 50% | ~0.5% |
| UDP-2,3-diacyl-glucosamine [UDP-diacylglucosamine] | not substrates | – | – |
